# Source: doi:10.1101/2020.11.21.391136v1 (biorxiv, 2020)
# Residue numbers refer to the chain shown, from its start.
# How the values were obtained:
# A3R (Hs-A3R) [1] = biological target: T1, A3R (Hs-A3R) (Homo sapiens, UniProt P0DMS8, L264M); test: cell-based; design: species or system HEK293A
# T1 sequence (P0DMS8 1-318 L264M): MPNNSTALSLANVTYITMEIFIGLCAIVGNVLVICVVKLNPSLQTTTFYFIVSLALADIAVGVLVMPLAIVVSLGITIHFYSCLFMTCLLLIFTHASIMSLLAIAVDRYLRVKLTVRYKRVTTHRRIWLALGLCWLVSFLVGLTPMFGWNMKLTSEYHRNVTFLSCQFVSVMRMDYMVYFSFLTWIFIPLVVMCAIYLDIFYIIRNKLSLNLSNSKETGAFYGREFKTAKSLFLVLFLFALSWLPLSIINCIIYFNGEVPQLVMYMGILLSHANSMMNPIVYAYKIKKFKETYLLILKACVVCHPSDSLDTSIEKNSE
# A3R (Hs-A3R) [2] = biological target: T2, A3R (Hs-A3R) (Homo sapiens, UniProt P0DMS8, V169E); test: cell-based; design: species or system HEK293A
# T2 sequence (P0DMS8 1-318 V169E): T1 sequence (P0DMS8 1-318 L264M) with V169E, M264L
# A3R (Hs-A3R) L264T [3] = biological target: T3, A3R (Hs-A3R) L264T (Homo sapiens, UniProt P0DMS8, L264T); test: cell-based; design: species or system HEK293A
# T3 sequence (P0DMS8 1-318 L264T): T1 sequence (P0DMS8 1-318 L264M) with M264T
# A2BR [4] = biological target: T4, A2BR (Homo sapiens, UniProt P29275); test: cell-based; design: species or system HEK293A
# T4 sequence (P29275 1-332): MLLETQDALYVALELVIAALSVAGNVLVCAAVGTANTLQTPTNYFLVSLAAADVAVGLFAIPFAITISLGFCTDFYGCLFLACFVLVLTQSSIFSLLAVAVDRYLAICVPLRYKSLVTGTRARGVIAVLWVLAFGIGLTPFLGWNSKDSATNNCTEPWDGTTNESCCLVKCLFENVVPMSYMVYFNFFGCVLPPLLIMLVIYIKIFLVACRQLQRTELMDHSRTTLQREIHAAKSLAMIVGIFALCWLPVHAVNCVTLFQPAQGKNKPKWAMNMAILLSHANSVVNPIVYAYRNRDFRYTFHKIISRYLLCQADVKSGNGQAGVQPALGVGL
# A3R (Hs-A3R) [5] = biological target: T5, A3R (Hs-A3R) (Homo sapiens, UniProt P0DMS8, I253T); test: cell-based; design: species or system HEK293A
# T5 sequence (P0DMS8 1-318 I253T): T1 sequence (P0DMS8 1-318 L264M) with I253T, M264L
# A3R (Hs-A3R) [6] = biological target: T6, A3R (Hs-A3R) (Homo sapiens, UniProt P0DMS8); test: cell-based; design: species or system HEK293A
# T6 sequence (P0DMS8 1-318): T1 sequence (P0DMS8 1-318 L264M) with M264L
# A2AR [7] = biological target: A2AR (Homo sapiens, UniProt P29274, T256I); test: cell-based; design: species or system HEK293A; conditions: HEK293-A, read-out: Emax (%)
# A2AR [8] = biological target: T7, A2AR (Homo sapiens, UniProt P29274); test: TGF-alpha shedding assay, HEK293A; type: cell-based
# A1R [9] = biological target: T8, A1R (Homo sapiens, UniProt P30542); test: TGF-alpha shedding assay, HEK293A; type: cell-based
# T8 sequence (P30542 1-326): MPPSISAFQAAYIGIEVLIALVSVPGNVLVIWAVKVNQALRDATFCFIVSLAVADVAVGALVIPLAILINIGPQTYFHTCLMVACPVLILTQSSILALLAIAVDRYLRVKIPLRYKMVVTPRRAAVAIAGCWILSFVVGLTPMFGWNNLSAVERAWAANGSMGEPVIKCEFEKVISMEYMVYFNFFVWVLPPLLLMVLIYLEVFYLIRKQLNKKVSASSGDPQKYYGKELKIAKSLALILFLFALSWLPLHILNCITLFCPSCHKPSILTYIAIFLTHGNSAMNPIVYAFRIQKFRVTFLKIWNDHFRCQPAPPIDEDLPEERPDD
# A1R T270L [10] = biological target: T9, A1R T270L (Homo sapiens, UniProt P30542, T270L); test: cell-based; design: species or system HEK293A
# T9 sequence (P30542 1-326 T270L): T8 sequence (P30542 1-326) with T270L
# A1R [11] = biological target: T8, A1R; design: species or system HEK293A; conditions: % AP-TGFα release, not normalised to a reference agonist
# A2AR [12] = biological target: T7, A2AR; test: cell-based; design: species or system HEK293A; conditions: HEK293-A, read-out: Emax (%)
# A2AR [13] = biological target: A2AR (Homo sapiens, UniProt P29274, M270L); test: cell-based; design: species or system HEK293A; conditions: HEK293-A, read-out: Emax (%)
# A3R (Hs-A3R) L264T [14] = biological target: T3, A3R (Hs-A3R) L264T; test: cell-based; design: species or system HEK293A; remark: listed apart in the source
# A1R T270L [15] = biological target: T9, A1R T270L; test: cell-based; design: species or system HEK293A; conditions: HEK293-A, read-out: Emax (%)
# A1R [16] = biological target: T10, A1R (Homo sapiens, UniProt P30542, T257I); test: cell-based; design: species or system HEK293A; conditions: HEK293-A, read-out: Emax (%)
# T10 sequence (P30542 1-326 T257I): T8 sequence (P30542 1-326) with T257I
# A2BR [17] = biological target: T4, A2BR; test: TGF-alpha shedding assay, HEK293A; type: cell-based
# A1R [18] = biological target: T11, A1R (Homo sapiens, UniProt P30542, E172V); test: cell-based; design: species or system HEK293A; conditions: HEK293-A, read-out: Emax (%)
# T11 sequence (P30542 1-326 E172V): T8 sequence (P30542 1-326) with E172V
# A2AR [19] = biological target: A2AR (Homo sapiens, UniProt P29274, E169V); design: species or system HEK293A; conditions: % AP-TGFα release, not normalised to a reference agonist
# Ss-A3R = biological target: T12, Ss-A3R (Sus scrofa, UniProt F1SBN8); test: TGF-alpha shedding assay, HEK293A; type: cell-based
# T12 sequence (F1SBN8 1-318): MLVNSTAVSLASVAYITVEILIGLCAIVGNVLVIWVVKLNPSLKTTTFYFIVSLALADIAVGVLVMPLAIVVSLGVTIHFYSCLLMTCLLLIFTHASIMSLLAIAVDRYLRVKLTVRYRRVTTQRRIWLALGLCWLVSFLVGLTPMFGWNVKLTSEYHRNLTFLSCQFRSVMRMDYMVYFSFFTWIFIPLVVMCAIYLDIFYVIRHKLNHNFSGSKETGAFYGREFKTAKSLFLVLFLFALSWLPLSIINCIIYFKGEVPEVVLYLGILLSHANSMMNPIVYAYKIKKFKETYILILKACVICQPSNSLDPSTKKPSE
# [20] = % AP-TGFα release, not normalised to a reference agonist, agonist
# T7 sequence (P29274 whole entry): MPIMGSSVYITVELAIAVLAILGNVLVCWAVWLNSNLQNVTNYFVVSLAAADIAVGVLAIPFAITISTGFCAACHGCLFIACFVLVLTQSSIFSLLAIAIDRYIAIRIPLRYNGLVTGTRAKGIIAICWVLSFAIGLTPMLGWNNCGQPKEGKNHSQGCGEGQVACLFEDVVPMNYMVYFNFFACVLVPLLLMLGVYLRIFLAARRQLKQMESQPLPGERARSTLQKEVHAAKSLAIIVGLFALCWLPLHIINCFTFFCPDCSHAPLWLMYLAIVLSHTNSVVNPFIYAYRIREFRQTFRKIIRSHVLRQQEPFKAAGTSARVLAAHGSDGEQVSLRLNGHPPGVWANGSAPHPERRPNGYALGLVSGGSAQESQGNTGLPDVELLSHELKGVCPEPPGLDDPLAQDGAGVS
# A2AR (Homo sapiens, UniProt P29274, E169V), sequence (P29274 whole entry E169V): as the sequence (P29274 whole entry) above, with E169V counted along it
# A2AR (Homo sapiens, UniProt P29274, M270L), sequence (P29274 whole entry M270L): as the sequence (P29274 whole entry) above, with M270L counted along it
# A2AR (Homo sapiens, UniProt P29274, T256I), sequence (P29274 whole entry T256I): as the sequence (P29274 whole entry) above, with T256I counted along it
compound,measurement,setting,value
Nc1ncnc2c1ncn2[C@@H]1O[C@H](CO)[C@@H](O)[C@H]1O [adenosine],Emax (%),A3R (Hs-A3R) [1]; [20],39 ± 2.6%
same,Emax (%),A3R (Hs-A3R) [2]; [20],14 ± 4.1%
same,Emax (%),A3R (Hs-A3R) L264T [3]; [20],22 ± 0.84%
same,Emax (%),A2BR [4]; [20],57 ± 1.2%
same,Emax (%),A3R (Hs-A3R) [5]; [20],37 ± 2.0%
same,Emax (%),A3R (Hs-A3R) [6]; [20],39 ± 0.82%
CNc1ncnc2c1ncn2[C@@H]1O[C@H](CO)[C@@H](O)[C@H]1O [m^6A],Emax,A2AR [7],30 ± 1.7%
same,EC50,A2AR [8],13000 ± 1100 nM
same,EC50,A1R [9],840 ± 130 nM
same,EC50,A1R T270L [10],540 ± 62 nM
same,Emax,"A3R (Hs-A3R) [1]; HEK293-A, read-out: Emax (%)",43 ± 1.7%
same,Emax (%),A1R [11],17 ± 2.2%
same,Emax,A2AR [12],17 ± 0.57%
same,Emax,A2AR [13],3.5 ± 0.68%
same,Emax,"A3R (Hs-A3R) [2]; HEK293-A, read-out: Emax (%)",22 ± 2%
same,EC50,A3R (Hs-A3R) L264T [14],6.4 ± 0.44 nM
same,Emax,"A3R (Hs-A3R) L264T [3]; HEK293-A, read-out: Emax (%)",27 ± 2.2%
same,Emax,A1R T270L [15],15 ± 1.6%
same,Emax,A1R [16],42 ± 1.2%
same,EC50,A2BR [17],51000 ± 6400 nM
same,Emax,A1R [18],32 ± 1.9%
same,Emax,"A2BR [4]; HEK293-A, read-out: Emax (%)",76 ± 4.7%
same,Emax,"A3R (Hs-A3R) [5]; HEK293-A, read-out: Emax (%)",41 ± 2.2%
same,Emax (%),A2AR [19],29 ± 2.0%
same,Emax,"A3R (Hs-A3R) [6]; HEK293-A, read-out: Emax (%)",43 ± 2.1%
same,EC50,Ss-A3R,39 ± 3.1 nM
